The experiment deals with BDF1 mice, Adenocarcinoma 755 s.c., tumor weight T/C. Put plainly: NCI In Vivo Anticancer Drug Screen. Data for tumor model Adenocarcinoma 755 (subcutaneous) in B6D2F1 (BDF1) mice. The conditions noted are these: endpoint: mean tumor weight, higher = larger tumour. In a few lines: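 Values express treated (T) relative to vehicle-dosed control (C) animals, based on survival or tumour size measured after compound treatment of mice bearing a transplanted tumour.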

Where [1] appears, read: dose: 5.0 mg/kg/injection, schedule: Q01DX011 (ip), vehicle: carboxymethylcellulose (CMC).
The mark [2] stands for this setting: dose: 10.0 mg/kg/injection, schedule: Q01DX011 (ip), vehicle: carboxymethylcellulose (CMC).
Where [3] appears, read: dose: 50.0 mg/kg/injection, schedule: Q01DX011 (ip), vehicle: carboxymethylcellulose (CMC).
The mark [4] stands for this setting: dose: 100.0 mg/kg/injection, schedule: Q01DX011 (ip), vehicle: carboxymethylcellulose (CMC).

Each structure is given as a SMILES string. “And” between values parts separate entries of the source, which are not always exact repeats. Identical values can stand only once.

What is called T/C is the ratio of treated to control. `Clc1ncnc2nc[nH]c12`: the T/C reads like this: (dose: 1.87 mg/kg/injection, schedule: Q01DX006 (iv), vehicle: carboxymethylcellulose (CMC)) 96 % of control; (dose: 1.87 mg/kg/injection, schedule: Q01DX011 (im), vehicle: carboxymethylcellulose (CMC)) 47 % of control; (dose: 1.87 mg/kg/injection, schedule: Q01DX011 (ip), vehicle: carboxymethylcellulose (CMC)) 83 % of control; (dose: 1.87 mg/kg/injection, schedule: Q01DX011 (sc), vehicle: carboxymethylcellulose (CMC)) 103 % of control; (dose: 2.5 mg/kg/injection, schedule: Q01DX011 (ip), vehicle: carboxymethylcellulose (CMC)) 66 % of control; (dose: 3.12 mg/kg/injection, schedule: Q01DX011 (oral), vehicle: carboxymethylcellulose (CMC)) 110 % of control. In addition, the T/C runs as follows: (dose: 3.12 mg/kg/injection, schedule: Q#A X022 (ip), vehicle: carboxymethylcellulose (CMC)) 48 % of control; (dose: 3.75 mg/kg/injection, schedule: Q01DX006 (iv), vehicle: carboxymethylcellulose (CMC)) 94 % of control; (dose: 3.75 mg/kg/injection, schedule: Q01DX011 (im), vehicle: carboxymethylcellulose (CMC)) 83 % of control; (dose: 3.75 mg/kg/injection, schedule: Q01DX011 (ip), vehicle: carboxymethylcellulose (CMC)) 62 % of control; (dose: 3.75 mg/kg/injection, schedule: Q01DX011 (sc), vehicle: carboxymethylcellulose (CMC)) 76 % of control; under setting [1], 36 % of control and 58 % of control. The T/C is 81 % of control (dose: 5.0 mg/kg/injection, schedule: Q03DX004 (ip), vehicle: carboxymethylcellulose (CMC)); 55 % of control (dose: 6.25 mg/kg/injection, schedule: Q01DX011 (oral), vehicle: carboxymethylcellulose (CMC)); 41 % of control (dose: 6.25 mg/kg/injection, schedule: Q#A X022 (ip), vehicle: carboxymethylcellulose (CMC)); 82 % of control (dose: 7.5 mg/kg/injection, schedule: Q01DX006 (iv), vehicle: carboxymethylcellulose (CMC)); 22 % of control (dose: 7.5 mg/kg/injection, schedule: Q01DX011 (im), vehicle: carboxymethylcellulose (CMC)); 34 % of control (dose: 7.5 mg/kg/injection, schedule: Q01DX011 (ip), vehicle: carboxymethylcellulose (CMC)). Also, the T/C was 28 % of control (dose: 7.5 mg/kg/injection, schedule: Q01DX011 (sc), vehicle: carboxymethylcellulose (CMC)); 27 % of control under setting [2]; 44 % of control (dose: 10.0 mg/kg/injection, schedule: Q01DX011 (ip), vehicle: methylcellulose (MC)); 66 % of control (dose: 10.0 mg/kg/injection, schedule: Q03DX004 (ip), vehicle: carboxymethylcellulose (CMC)); 11 % of control (dose: 12.5 mg/kg/injection, schedule: Q01DX011 (oral), vehicle: carboxymethylcellulose (CMC)); 8 % of control (dose: 12.5 mg/kg/injection, schedule: Q#A X022 (ip), vehicle: carboxymethylcellulose (CMC)). Besides, the T/C was 25 % of control (dose: 15.0 mg/kg/injection, schedule: Q01DX006 (iv), vehicle: carboxymethylcellulose (CMC)); 13 % of control (dose: 15.0 mg/kg/injection, schedule: Q01DX011 (ip), vehicle: carboxymethylcellulose (CMC)); 7 % of control (dose: 15.0 mg/kg/injection, schedule: Q01DX011 (sc), vehicle: carboxymethylcellulose (CMC)); 55 % of control (dose: 15.0 mg/kg/injection, schedule: Q03DX004 (ip), vehicle: carboxymethylcellulose (CMC)); 46 % of control (dose: 18.75 mg/kg/injection, schedule: Q07DX002 (ip), vehicle: carboxymethylcellulose (CMC)); 2 % of control (dose: 25.0 mg/kg/injection, schedule: Q01DX011 (oral), vehicle: carboxymethylcellulose (CMC)). Moreover, the T/C is, setting by setting: (dose: 25.0 mg/kg/injection, schedule: Q03DX004 (ip), vehicle: carboxymethylcellulose (CMC)) 35 % of control; (dose: 37.5 mg/kg/injection, schedule: Q01DX001 (ip), vehicle: carboxymethylcellulose (CMC)) 49 % of control and 66 % of control; (dose: 37.5 mg/kg/injection, schedule: Q07DX002 (ip), vehicle: carboxymethylcellulose (CMC)) 16 % of control; under setting [3], 3 % of control; (dose: 50.0 mg/kg/injection, schedule: Q01DX011 (ip), vehicle: methylcellulose (MC)) 5 % of control; (dose: 50.0 mg/kg/injection, schedule: Q01DX011 (sc), vehicle: carboxymethylcellulose (CMC)) 1 % of control. Also, the T/C is, setting by setting: (dose: 50.0 mg/kg/injection, schedule: Q03DX004 (ip), vehicle: carboxymethylcellulose (CMC)) 5 % of control; (dose: 75.0 mg/kg/injection, schedule: Q01DX001 (ip), vehicle: carboxymethylcellulose (CMC)) 18 % of control and 42 % of control; (dose: 75.0 mg/kg/injection, schedule: Q03DX004 (ip), vehicle: carboxymethylcellulose (CMC)) 1 % of control; (dose: 75.0 mg/kg/injection, schedule: Q07DX002 (ip), vehicle: carboxymethylcellulose (CMC)) 1 % of control; under setting [4], 1 % of control and 4 % of control; (dose: 100.0 mg/kg/injection, schedule: Q01DX011 (ip), vehicle: methylcellulose (MC)) 6 % of control. Moreover, the T/C (dose: 150.0 mg/kg/injection, schedule: Q01DX001 (ip), vehicle: carboxymethylcellulose (CMC)) was 24 % of control and 29 % of control; the T/C (dose: 150.0 mg/kg/injection, schedule: Q07DX002 (ip), vehicle: carboxymethylcellulose (CMC)) is 1 % of control; the T/C (dose: 175.0 mg/kg/injection, schedule: Q01DX001 (ip), vehicle: carboxymethylcellulose (CMC)) is 8 % of control and 17 % of control; the T/C (dose: 175.0 mg/kg/injection, schedule: Q07DX002 (ip), vehicle: carboxymethylcellulose (CMC)) is 4 % of control; the T/C (dose: 300.0 mg/kg/injection, schedule: Q01DX011 (ip), vehicle: methylcellulose (MC)) was 4 % of control; the T/C (dose: 350.0 mg/kg/injection, schedule: Q01DX001 (ip), vehicle: carboxymethylcellulose (CMC)) was 5 % of control and 8 % of control.
Regarding `C=CCc1c[nH]c(=O)[nH]c1=O`, the T/C is 99 % of control (dose: 67.5 mg/kg/injection, schedule: Q01DX011 (ip), vehicle: saline); 78 % of control (dose: 125.0 mg/kg/injection, schedule: Q01DX011 (ip), vehicle: saline); 72 % of control (dose: 250.0 mg/kg/injection, schedule: Q01DX011 (ip), vehicle: saline).
With `COCCCNS(=O)(=O)c1ncnc2nc[nH]c12`, the T/C was 79 % of control (dose: 1.0 mg/kg/injection, schedule: Q01DX011 (ip), vehicle: carboxymethylcellulose (CMC)); 74 % of control (dose: 1.0 mg/kg/injection, schedule: Q01DX011 (ip), vehicle: saline); 96 % of control (dose: 2.5 mg/kg/injection, schedule: Q01DX011 (ip), vehicle: saline); 63 % of control and 81 % of control (dose: 3.0 mg/kg/injection, schedule: Q01DX011 (ip), vehicle: carboxymethylcellulose (CMC)); 163 % of control (dose: 3.0 mg/kg/injection, schedule: Q01DX011 (ip), vehicle: saline); 86 % of control under setting [1]. The T/C was 105 % of control (dose: 6.0 mg/kg/injection, schedule: Q01DX011 (ip), vehicle: other); 80 % of control under setting [2]; 43 % of control (dose: 12.0 mg/kg/injection, schedule: Q01DX011 (ip), vehicle: other); 8 % of control (2×) and 30 % of control (dose: 12.5 mg/kg/injection, schedule: Q01DX011 (ip), vehicle: carboxymethylcellulose (CMC)); 24 % of control (dose: 12.5 mg/kg/injection, schedule: Q01DX011 (ip), vehicle: saline); 37 % of control (dose: 25.0 mg/kg/injection, schedule: Q01DX011 (ip), vehicle: other). Besides, the T/C was 5 % of control and 9 % of control (dose: 25.0 mg/kg/injection, schedule: Q01DX011 (ip), vehicle: saline); 3 % of control and 4 % of control under setting [3]; 5 % of control (dose: 50.0 mg/kg/injection, schedule: Q01DX011 (ip), vehicle: saline); 3 % of control under setting [4]; 7 % of control (dose: 100.0 mg/kg/injection, schedule: Q01DX011 (ip), vehicle: other); 1 % of control (dose: 200.0 mg/kg/injection, schedule: Q01DX011 (ip), vehicle: saline).
As to `NNC(=O)c1nsnc1NC(N)=O`, the T/C is 39 % of control (dose: 43.0 mg/kg/injection, schedule: Q01DX011 (ip), vehicle: carboxymethylcellulose (CMC)) and 18 % of control (dose: 60.0 mg/kg/injection, schedule: Q01DX011 (ip), vehicle: carboxymethylcellulose (CMC)).
